# Source: patent US5849753A, “Pyridyl imidazole derivatives and processes for the preparation thereof” (Korea Research Institute of Chemical Technology, priority 1994, dated 1998)
# Tests used:
# renal hypertensive rat [1] = assay: Blood pressure lowering effect in renal hypertension (renal hypertensive rats, intravenous or oral); assay type: in vivo, male Sprague-Dawley rats; details: 3 mg, read-out: Maxium Blood Pressure Lowering Effect(%)
# Outline: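 Renal hypertension induced in male Sprague-Dawley rats by complete left renal artery ligation at 4 weeks of age; rats with systolic pressure above 180 mmHg at 6–8 days were used. Compounds given i.v. (in 0.05N KOH) or p.o. (Tween 80 suspension); blood pressure and heart rate recorded via carotid catheter up to 24 h, compared with losartan.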
# renal hypertensive rat [2] = assay: Blood pressure lowering effect on oral administration to rats at several doses; assay type: in vivo, male Sprague-Dawley rats
# Description: To induce renal hypertension, left renal artery of 4 week-old male Sprague-Dawley rats(from The Korea Research Institute of Chemical Technology) was ligated. The rats were anesthetized with ether and the surgical region on the left abdomen of the rat was shaved, disinfected, and then incised about 1 cm vertically. The renal artery near abdominal aorta was isolated carefully from surrounding tissues and veins, and then ligated completely with a suture(4/0 sterile surgical silk). The muscular strata and skin of the surgical area were sutured with a suture(4/0 sterile surgical silk). The surgical region was disinfected to prevent infection and thereafter, 200 to 250 mg/Kg/day of cephazolin sodium was injected intramuscularly for 2 days. 6 to 8 days after the ligation, rats showing systolic pressure of more than 180 mmHg were selected for renal hypertension test. The blood pressure was determined by a tail-cuff method from the tail under unanesthetized condition(Gerold, M. et al., Arzneimittrel-Forsch, 18, 1285(1968)).
# Each of the compounds to be tested was administered intravenously or orally into the renal hypertensive rat. The blood pressure of the rats was determined by direct method(Chiu, A. T. et al., J. Pharmacol. Exp. Ther. 250, 867(1989)) using a catheter. The rats were anesthetized with ketamine hydrochloride(125 mg/kg, i.p.) and a catheter was filled with saline and inserted into a carotid artery and carotid vein. The surgical area was sutured with a metal clip. The rats were relaxed at least 3 hours and the catheter in the carotid artery was adapted to an isotec pressure transducer to determine their blood pressure and heart rate with a physiograph(Linearcorder WR3310). After the blood pressure was stabilized, the test compound was administered intravenously or orally. For intravenous administration, the administered volume and washing volume were 1.0 ml/Kg and 0.2 ml, respectively. The blood pressure and heart rate were measured in regular intervals up to 24 hours after the administration of the test compound and compared with those measured after the administration of the control compound Losartan.
# The test compound was dissolved in 0.05N KOH for intravenous administration and suspended in Tween 80 for oral administration.
# (iii) Blood pressure lowering effect The present compounds, Losartan(Dup 753) and the Merck compound were administrated orally to rats in 10, 3, 1, 0.3 and 0.1 mg/kg under the same condition as in (ii) and the blood pressure lowering effect was determined.
# unanesthetized dogs = assay: Blood pressure lowering effect in unanesthetized dogs (furosemide treated); assay type: in vivo, dog; design: Maximum blood pressure lowering effect in a dog: unit not given here; details: oral; for Blood pressure variation with time: dogs, 1.0 mg
# Procedure: A number of dogs were fed freely in a feeding room and those weighing 7 to 12 kg in good health were selected regardless of their gender.
# The test dogs were anesthetized with 30 mg/kg of pentobarbital sodium by intravenous injection and the left femoral artery and femoral vein were separated carefully. Silicone catheter, specially prepared and filled with saline treated with heparin(1,000 IU/ml), was cannulated into the blood vessels. After the surgery, the dogs were constrained to measure their blood pressure continuously with Gould 2000 physiograph adapted to a Grass P23 XL pressure transducer; and their heart rates were monitored with ECG/Biotacho amplifier. The dogs were tested at least 2 days after the surgery.
# 10 mg/kg of furosemide was injected intramuscularly 18 hours(in case of intravenous injection, 2 hours) before the beginning of the test (administration of the test compound) to improve the activity of renin in blood plasma. After the injection of furosemide, neither food nor water was provided. The test compound was suspended in Tween 80 and administered in an amount of 20 mg/kg orally. The blood pressure and heart rate were measured up to 8 hours after the administration of each test compound.
# The maximum blood pressure lowering effect of the present compounds and the control compounds were determined in different amounts of administration using the same method as […]
# [3] = Metabolite analysis (enzyme digestion test); assay type: in vitro ADME, male rats; details: rat liver microsome and NADPH, 1 hour, 37° C.
# Procedure: Enzyme digestion test was executed in order to detect the metabolite of the test compound in vivo.
# A liver microsome and NADPH system of male rats were added to each of the present compound(Example 8) and the control compound(Merck), and the mixture was incubated for 1 hour at 37° C. The resultant was extracted with methanol or dichloromethane, and, thereafter, the organic layer was evaporated to obtain a residue. The residue was analyzed using high pressure liquid chromatography.
smiles,measurement,setting,value
"CCCCc1nc2cc(-c3ccccn3)c(C(OC)OC)nc2n1Cc1ccc(-c2ccccc2-c2nnn[nH]2)cc1 [Example 8, 2-butyl-5-dimethoxymethyl-6-(pyridin-2-yl)-3-[2'-(1H-tetrazol-5-yl)-biphenyl-4-ylmethyl]-3H-imidazo[4,5-b]pyridine]",change in vivo at 3 mg,renal hypertensive rat [1],-50%
same,blood pressure lowering effect,renal hypertensive rat [2]; 1 mg/kg,32%
same,blood pressure lowering effect,renal hypertensive rat [2]; 3 mg/kg,35-37%
same,Maximum blood pressure lowering effect in a dog,unanesthetized dogs; 0.1 mg/kg,17
same,Maximum blood pressure lowering effect in a dog,unanesthetized dogs; 0.3 mg/kg,32
same,Maximum blood pressure lowering effect in a dog,unanesthetized dogs; 1 mg/kg,34
same,Blood pressure variation with time,unanesthetized dogs; 0.5 hr,-32.7%
same,Blood pressure variation with time,unanesthetized dogs; 1 hr,-29.9%
same,Blood pressure variation with time,unanesthetized dogs; 2 hr,-33.0%
same,Blood pressure variation with time,unanesthetized dogs; 4 hr,-26.8%
same,Blood pressure variation with time,unanesthetized dogs; 6 hr,-25.0%
same,Blood pressure variation with time,unanesthetized dogs; 8 hr,-19.7%
same,metabolite from the enzymatic digestion,[3]; HPLC,no metabolite
same,stability against the enzymatic digestion,[3]; in contrast with the Merck compound,good stability
